# Reference: patent publication US8946142B2, “Beta-arrestin effectors and compositions and methods of use thereof” (Trevena, Inc., priority 2012, dated 2015)
# pEC50: −log10 of the molar value. Where a SMILES comes first, the peptide text is derived from it. [ ]: non-standard residue; d: D form. Ac6c = NC1(C(=O)O)CCCCC1; Ac5c = NC1(C(=O)O)CCCC1; Sar = CNCC(=O)O
# Experiments:
# Format in all cases: cell-based
# [1] = molecular target: T1, human AT1R (Homo sapiens, UniProt P30556); test: IP1 accumulation assay (IP1 G-protein assay), human AT1R; conditions: for pEC50: read-out: EC50; for Emax: read-out: Span (relative to hAngII); for EC50: read-out: pEC50 (converted)
# T1 sequence (P30556 1-359): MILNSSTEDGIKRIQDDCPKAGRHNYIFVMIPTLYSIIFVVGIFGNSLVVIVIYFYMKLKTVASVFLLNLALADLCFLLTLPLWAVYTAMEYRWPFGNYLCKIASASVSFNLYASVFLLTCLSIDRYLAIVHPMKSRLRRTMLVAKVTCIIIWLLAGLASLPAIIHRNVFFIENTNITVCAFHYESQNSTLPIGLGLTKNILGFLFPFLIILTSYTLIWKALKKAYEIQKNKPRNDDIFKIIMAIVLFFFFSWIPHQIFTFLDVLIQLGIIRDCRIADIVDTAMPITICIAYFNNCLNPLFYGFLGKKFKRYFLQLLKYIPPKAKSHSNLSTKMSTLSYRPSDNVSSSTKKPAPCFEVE
# Method: (§1) A secondary measure of G protein coupling efficacy was also performed. IP3 is generated by activation of phospholipase C by Gα-q. IP3 is degraded to IP1, which can be forced to accumulate in cells by blocking degradation with lithium chloride. Thus we measured accumulation of IP1 to determine ligand efficacy for G protein activation.
# (§2) IP1 accumulation generated by human and rat angiotensin 2 type 1 receptor (human AT1R and rat AT1aR, respectively) was measured with IP-One Tb kits purchased from Cisbio and used per the manufacturer's instructions. Clonal stably transfected cell lines expressing human AT1TR or rat AT1aR were used for all experiments.
# (§3) For assays, 4,000-8,000 cells were seeded per well in 384-well small-volume microplates “HiBase” small-volume plate in volumes of 20 uL and allowed to grow overnight at 37° C. in 5% CO2. Cell growth media was then replaced with stimulation buffer supplied by Cisbio containing 50 mM lithium chloride. […] For agonist detection, peptides were then further diluted in stimulation buffer to add peptide to the cells to reach final concentrations ranging from 100 uM to 1 pM. Following addition of peptides, cells were incubated at 37° C. in 5% CO2 for 30 minutes and then lysed with 4 uL of pre-mixed HTRF IP-One reagents diluted per manufacturer's instructions (Cisbio). Microplates were incubated for 60-90 minutes at room temperature and then time-resolved fluorescence intensities were measured using a PHERAstar Plus microplate reader from BMG Labtech. IP1 accumulation was measured as change in ratio of time-resolved fluorescent intensities measured at 665 nm and 620 nm.
# [2] = molecular target: T2, rat AT1aR (Rattus norvegicus, UniProt P25095); test: IP1 accumulation assay (IP1 G-protein assay), rat AT1aR; conditions: for pEC50: read-out: EC50; for Emax: read-out: Span (relative to hAngII); for EC50: read-out: pEC50 (converted)
# T2 sequence (P25095 1-359): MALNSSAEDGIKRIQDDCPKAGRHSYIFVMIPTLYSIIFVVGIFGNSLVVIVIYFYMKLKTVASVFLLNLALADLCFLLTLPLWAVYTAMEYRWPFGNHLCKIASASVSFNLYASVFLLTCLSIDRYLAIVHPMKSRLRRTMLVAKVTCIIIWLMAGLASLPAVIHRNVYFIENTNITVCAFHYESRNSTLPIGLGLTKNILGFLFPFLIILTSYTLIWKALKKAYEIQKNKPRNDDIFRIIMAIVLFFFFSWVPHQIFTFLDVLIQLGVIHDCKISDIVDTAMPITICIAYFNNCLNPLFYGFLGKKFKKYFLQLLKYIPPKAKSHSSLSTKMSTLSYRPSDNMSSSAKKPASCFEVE
# Method: as §1, §2, §3
# [3] = molecular target: T1, human AT1R; test: beta-arrestin2 recruitment assay (PathHunter), human AT1R; conditions: for Emax: 1 h, read-out: Span (relative to hAngII); for pEC50: read-out: EC50; for EC50: read-out: pEC50 (converted)
# Procedure, shortened: (§4)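 PathHunter enzyme-complementation assay in HEK293 cells stably expressing ProLink-tagged human AT1R or rat AT1aR; peptides (final 100 μM–1 pM) in HBSS/20 mM HEPES for 60 min at 37 °C. Detection reagent 60 min at room temperature; β-arrestin-2 recruitment read as relative luminescence.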
# [4] = molecular target: T2, rat AT1aR; test: beta-arrestin2 recruitment assay (PathHunter), rat AT1aR; conditions: for Emax: 1 h, read-out: Span (relative to hAngII); for pEC50: read-out: EC50; for EC50: read-out: pEC50 (converted)
# Procedure, shortened: as §4
SMILES,pEC50 [1],Emax [1],EC50 [1],pEC50 [2],Emax [2],Emax [3],pEC50 [3],Emax [4],pEC50 [4],EC50 [2],EC50 [3],EC50 [4]
"CNCC(=O)N[C@@H](CCCNC(=N)N)C(=O)N[C@H](C(=O)N[C@@H](Cc1ccc(O)cc1)C(=O)NC1(C(=O)N[C@@H](Cc2c[nH]cn2)C(=O)N2CCC[C@H]2C(=O)N[C@@H](Cc2ccccc2)C(=O)O)CCCCC1)C(C)C [SEQ ID NO: 17, Sar-Arg-Val-Tyr-cyHex-His-Pro-Phe] (H-[Sar]RVY[Ac6c]HPF-OH; N-terminus and C-terminus assumed)",> 8.89,< 103%,> 0.631 nM,< 9.22,> 104%,> 101%,< 8.49,< 105%,8.49,,,
"CC[C@H](C)[C@H](NC(=O)[C@@H]1CCCN1C(=O)[C@H](Cc1c[nH]cn1)NC(=O)C1(NC(=O)[C@H](Cc2ccc(O)cc2)NC(=O)[C@@H](NC(=O)[C@H](CCCN=C(N)N)NC(=O)CNC)C(C)C)CCCC1)C(=O)O [SEQ ID NO: 18, Sar-Arg-Val-Tyr-cyPen-His-Pro-Ile] (H-[Sar]RVY[Ac5c]HPI-OH)",< 8.89,,> 0.631 nM,< 9.22,,,< 8.49,,< 8.49,> 0.631 nM,> 3.16 nM,> 3.16 nM
"CC[C@H](C)[C@H](NC(=O)[C@@H]1CCCN1C(=O)[C@H](Cc1c[nH]cn1)NC(=O)C1(NC(=O)[C@H](Cc2ccc(O)cc2)NC(=O)[C@@H](NC(=O)[C@H](CCCNC(=N)N)NC(=O)CNC)C(C)C)CCCC1)C(=O)O [SEQ ID NO: 18, Sar-Arg-Val-Tyr-cyPen-His-Pro-Ile] (H-[Sar]RVY[Ac5c]HPI-OH)",,< 103%,,,< 104%,< 101%,,< 105%,,,,
"CNCC(=O)N[C@@H](CCCNC(=N)N)C(=O)N[C@H](C(=O)N[C@@H](Cc1ccc(O)cc1)C(=O)NC1(C(=O)N[C@@H](Cc2c[nH]cn2)C(=O)N2CCC[C@H]2C(=O)N[C@@H](CC(C)C)C(=O)O)CCCC1)C(C)C [SEQ ID NO: 19, Sar-Arg-Val-Tyr-cyPen-His-Pro-Leu] (H-[Sar]RVY[Ac5c]HPL-OH)",< 8.89,< 103%,> 0.631 nM,< 9.22,,< 101%,< 8.49,< 105%,< 8.49,> 0.631 nM,> 3.16 nM,> 3.16 nM
"CNCC(=O)N[C@@H](CCCNC(=N)N)C(=O)N[C@H](C(=O)N[C@@H](Cc1ccc(O)cc1)C(=O)NC1(C(=O)N[C@@H](Cc2c[nH]cn2)C(=O)N2CCC[C@H]2C(=O)N[C@H](C(=O)O)C(C)C)CCCC1)C(C)C [SEQ ID NO: 20, Sar-Arg-Val-Tyr-cyPen-His-Pro-Val] (H-[Sar]RVY[Ac5c]HPV-OH)",< 8.89,< 103%,> 0.631 nM,< 9.22,< 104%,< 101%,< 8.49,< 105%,< 8.49,> 0.631 nM,> 3.16 nM,> 3.16 nM
"CNCC(=O)N[C@@H](CCCNC(=N)N)C(=O)N[C@H](C(=O)N[C@@H](Cc1ccc(O)cc1)C(=O)NC1(C(=O)N[C@@H](Cc2c[nH]cn2)C(=O)N2CCC[C@H]2C(=O)N[C@H](C(=O)O)[C@@H](C)O)CCCC1)C(C)C [SEQ ID NO: 21, Sar-Arg-Val-Tyr-cyPen-His-Pro-Thr] (H-[Sar]RVY[Ac5c]HPT-OH)",< 8.89,,> 0.631 nM,< 9.22,< 104%,< 101%,< 8.49,< 105%,< 8.49,> 0.631 nM,> 3.16 nM,> 3.16 nM
"CNCC(=O)N[C@@H](CCCNC(=N)N)C(=O)N[C@H](C(=O)N[C@@H](Cc1ccc(O)cc1)C(=O)NC1(C(=O)N[C@@H](Cc2c[nH]cn2)C(=O)N2CCC[C@H]2C(=O)N[C@@H](CO)C(=O)O)CCCC1)C(C)C [SEQ ID NO: 22, Sar-Arg-Val-Tyr-cyPen-His-Pro-Ser] (H-[Sar]RVY[Ac5c]HPS-OH)",< 8.89,,> 0.631 nM,< 9.22,< 104%,< 101%,< 8.49,< 105%,< 8.49,> 0.631 nM,> 3.16 nM,> 3.16 nM
"CNCC(=O)N[C@@H](CCCNC(=N)N)C(=O)N[C@H](C(=O)N[C@@H](Cc1ccc(O)cc1)C(=O)NC1(C(=O)N[C@@H](Cc2c[nH]cn2)C(=O)N2CCC[C@H]2C(=O)N[C@@H](CCSC)C(=O)O)CCCC1)C(C)C [SEQ ID NO: 23, Sar-Arg-Val-Tyr-cyPen-His-Pro-Met] (H-[Sar]RVY[Ac5c]HPM-OH)",< 8.89,< 103%,> 0.631 nM,< 9.22,< 104%,< 101%,< 8.49,< 105%,< 8.49,> 0.631 nM,> 3.16 nM,> 3.16 nM
"CNCC(=O)N[C@@H](CCCNC(=N)N)C(=O)N[C@H](C(=O)N[C@@H](Cc1ccc(O)cc1)C(=O)NC1(C(=O)N[C@@H](Cc2c[nH]cn2)C(=O)N2CCC[C@H]2C(=O)N[C@@H](Cc2ccccc2)C(=O)O)CCCC1)C(C)C [SEQ ID NO: 24, Sar-Arg-Val-Tyr-cyPen-His-Pro-Phe] (H-[Sar]RVY[Ac5c]HPF-OH)",> 8.89,> 103%,> 0.631 nM,< 9.22,< 104%,> 101%,< 8.49,< 105%,< 8.49,> 0.631 nM,> 3.16 nM,> 3.16 nM
"CNCC(=O)N[C@@H](CCCNC(=N)N)C(=O)N[C@H](C(=O)N[C@@H](Cc1ccc(O)cc1)C(=O)NC1(C(=O)N[C@@H](Cc2c[nH]cn2)C(=O)N2CCC[C@H]2C(=O)N[C@@H](CCC(N)=O)C(=O)O)CCCCC1)C(C)C [SEQ ID NO: 38, Sar-Arg-Val-Tyr-cyHex-His-Pro-Gln] (H-[Sar]RVY[Ac6c]HPQ-OH)",< 8.89,< 103%,> 0.631 nM,< 9.22,< 104%,< 101%,< 8.49,< 105%,< 8.49,> 0.631 nM,> 3.16 nM,> 3.16 nM
"CNCC(=O)N[C@@H](CCCNC(=N)N)C(=O)N[C@H](C(=O)N[C@@H](Cc1ccc(O)cc1)C(=O)NC1(C(=O)N[C@@H](Cc2c[nH]cn2)C(=O)N2CCC[C@H]2C(=O)N2CCC[C@H]2C(=O)O)CCCCC1)C(C)C [SEQ ID NO: 39, Sar-Arg-Val-Tyr-cyHex-His-Pro-Pro] (H-[Sar]RVY[Ac6c]HPP-OH)",< 8.89,< 103%,> 0.631 nM,< 9.22,< 104%,< 101%,< 8.49,< 105%,< 8.49,> 0.631 nM,> 3.16 nM,> 3.16 nM
"CNCC(=O)N[C@@H](CCCNC(=N)N)C(=O)N[C@H](C(=O)N[C@@H](Cc1ccc(O)cc1)C(=O)NC1(C(=O)N[C@@H](Cc2c[nH]cn2)C(=O)N2CCC[C@H]2C(=O)N[C@@H](Cc2c[nH]c3ccccc23)C(=O)O)CCCCC1)C(C)C [SEQ ID NO: 54, Sar-Arg-Val-Tyr-cyHex-His-Pro-Trp] (H-[Sar]RVY[Ac6c]HPW-OH)",< 8.89,< 103%,> 0.631 nM,< 9.22,< 104%,< 101%,< 8.49,< 105%,< 8.49,> 0.631 nM,> 3.16 nM,> 3.16 nM
